# In patent US20090088380A1, “GHRH ANALOGS AND THERAPEUTIC USES THEREOF” (priority 2007, published 2009):
# Non-standard residues stand in square brackets, D forms with d. Residues, ends and D or L forms follow the SMILES beside them.
# Legend:
# [1] = system: Canine Growth Hormone; assay: In vivo GH secretion in a male Beagle dog, escalating SC doses, RIA
# Description: In order to assess such use of the GHRH analogs, the following experiments were undertaken. […] The above GHRH analog is a variation of a synthetic acetate salt of an amidated synthetic 29-amino acid peptide that corresponds to the amino-terminal segment of the naturally-occurring human growth hormone—releasing hormone (GHRH) with four amino acid substitutions in positions 2, 10, 15, and 22.
# Prior to administration, all dosing formulations were filtered using a 0.22 μm filter to ensure sterility. […] Dosing started at approximately the same time each day, commencing at 9:00 am ±30 minutes.
# For pharmacodynamic investigations, blood samples (approximately 1.0 ml) were collected from the dog on each treatment day via a jugular venipuncture at the following time points: pre-dose, 7, 15, 22, 30, 45, and 60 minutes post dosing. All blood samples were collected into potassium EDTA tubes and centrifuged under refrigeration (2 to 8° C., 1500 g for 10 minutes).
# Plasma GH was determined by Linco Diagnostic Services using their own kit. Linco's Porcine/Canine Growth Hormone radioimmunoassay kit (RIA) (PGH-46HK) has been developed to quantitate Growth Hormone in plasma, serum, and tissue culture media. It is a completely homologous assay since the antibody was raised against recombinant Porcine Growth Hormone and both the standard and tracer are prepared with recombinant Porcine Growth Hormone. Since the amino acid sequences of Porcine Growth Hormone and Canine Growth Hormone are identical, this assay developed for Porcine Growth Hormone measures Canine Growth Hormone levels with equal efficiency. All components are included (standards, antibody, tracer, quality controls, precipitating reagents and buffer) necessary to complete a RIA. The assay was conducted under the following conditions: overnight; equilibrium incubation at room temperature; sample volume: 100 μl serum, plasma, or cell culture media.
# [2] = in vivo; conditions: Sprague-Dawley, rat
# Method: No mortality, adverse clinical sign, effects on body weight, food consumption, opthalmology, haematology, coagulation, clinical chemistry, urinalysis, organ weights, macroscopic or microscopic observations were noted following the dosing or recovery periods. The no adverse effect level for this study was determined to be 3 mg/kg body weight.
# [3] = system: malnourished subjects with CKD; assay: Phase II CKD: DEXA scan; assay type: in vivo, human
# Method: The DEXA scan was performed by an appropriately qualified person and in accordance with the agreed guidelines. Mean body composition values (fat free mass, fat mass and bone mineral content) were recorded for the total body and for defined regional areas (arms, legs, trunk), if possible.
# Mean body composition values (total tissue, fat mass, lean tissue and bone mineral content) were recorded for the total body and defined regional areas (arms, legs, trunk) if possible. FFM was derived for total body and for regional areas.
# [4] = system: malnourished subjects with CKD; assay: Phase II CKD: adverse events; assay type: in vivo, human; conditions: 28 days
# Description: The number and nature of AEs was consistent with subjects with chronic renal failure. Although the number of AEs reported by subjects in the GHRH(1-29)NH2 synthetic analog group was higher than the number reported by subjects in the placebo group (70 vs. 58), there was no clear pattern to distinguish the treatments from each other in safety terms. This might be partly due to the relatively low number of subjects in the study but, overall, the 2 groups were generally balanced with respect to the nature and incidence of AEs.
structure (smiles),measurement,setting,value
"CC[C@H](C)[C@H](NC(=O)[C@H](C)NC(=O)[C@H](CC(=O)O)NC(=O)[C@@H](C)NC(=O)[C@@H](N)Cc1ccc(O)cc1)C(=O)N[C@@H](Cc1ccccc1)C(=O)N[C@H](C(=O)N[C@@H](CC(N)=O)C(=O)N[C@@H](CO)C(=O)N[C@H](Cc1ccc(O)cc1)C(=O)N[C@@H](CCCNC(=N)N)C(=O)N[C@@H](CCCCN)C(=O)N[C@H](C(=O)N[C@@H](CC(C)C)C(=O)N[C@H](C)C(=O)N[C@@H](CCC(N)=O)C(=O)N[C@@H](CC(C)C)C(=O)N[C@@H](CO)C(=O)N[C@@H](C)C(=O)N[C@@H](CCCNC(=N)N)C(=O)N[C@@H](CCCCN)C(=O)N[C@@H](CCCCN)C(=O)N[C@@H](CC(C)C)C(=O)N[C@@H](CCC(N)=O)C(=O)N[C@@H](CC(=O)O)C(=O)N[C@H](C(=O)N[C@@H](CCSC)C(=O)N[C@@H](CO)C(=O)N[C@@H](CCCNC(=N)N)C(N)=O)[C@@H](C)CC)C(C)C)[C@@H](C)O [GHRH analog #5, [D-Ala^2, D-Tyr^10, D-Ala^15, Lys^22] hGHRH(1-29)-NH2] (H-Y[dA]DAIFTNS[dY]RKVL[dA]QLSARKKLQDIMSR-NH2)",Canine Growth Hormone,"[1]; 0.01 mg/kg BW SC, 0 min",1.99 ng/mL
same,Canine Growth Hormone,"[1]; 0.01 mg/kg BW SC, 7 min",1.99 ng/mL
same,Canine Growth Hormone,"[1]; 0.01 mg/kg BW SC, 15 min",5 ng/mL
same,Canine Growth Hormone,"[1]; 0.01 mg/kg BW SC, 22 min",4 ng/mL
same,Canine Growth Hormone,"[1]; 0.01 mg/kg BW SC, 30 min",11 ng/mL
same,Canine Growth Hormone,"[1]; 0.01 mg/kg BW SC, 45 min",17 ng/mL
same,Canine Growth Hormone,"[1]; 0.01 mg/kg BW SC, 60 min",11 ng/mL
same,Canine Growth Hormone,"[1]; 0.1 mg/kg BW SC, 0 min",1.99 ng/mL
same,Canine Growth Hormone,"[1]; 0.1 mg/kg BW SC, 7 min",5 ng/mL
same,Canine Growth Hormone,"[1]; 0.1 mg/kg BW SC, 15 min",9 ng/mL
same,Canine Growth Hormone,"[1]; 0.1 mg/kg BW SC, 22 min",7 ng/mL
same,Canine Growth Hormone,"[1]; 0.1 mg/kg BW SC, 30 min",6 ng/mL
same,Canine Growth Hormone,"[1]; 0.1 mg/kg BW SC, 45 min",5 ng/mL
same,Canine Growth Hormone,"[1]; 0.1 mg/kg BW SC, 60 min",1.99 ng/mL
same,Canine Growth Hormone,"[1]; 1 mg/kg BW SC, 0 min",1.99 ng/mL
same,Canine Growth Hormone,"[1]; 1 mg/kg BW SC, 7 min",4 ng/mL
same,Canine Growth Hormone,"[1]; 1 mg/kg BW SC, 15 min",14 ng/mL
same,Canine Growth Hormone,"[1]; 1 mg/kg BW SC, 22 min",9 ng/mL
same,Canine Growth Hormone,"[1]; 1 mg/kg BW SC, 30 min",19 ng/mL
same,Canine Growth Hormone,"[1]; 1 mg/kg BW SC, 45 min",7 ng/mL
same,Canine Growth Hormone,"[1]; 1 mg/kg BW SC, 60 min",7 ng/mL
same,Treatment-related clinical signs,[1]; dog,No treatment-related clinical signs were observed
same,GH response compared with natural hGHRH(1-44)NH2,"[1]; dog, AUC not measured",significantly larger
same,"GH secretion into peripheral blood, dose dependence","[1]; dog, subcutaneous",dose-dependent response
same,Optimal sc dose,[1]; dogs,10 μg/kg body weight
same,NOAEL at 672 h,[2],3 mg/kg
same,Mean fat mass (%) as % of the mean in placebo group,[3]; Day 28,83%
same,Mean fat mass (kg) as % of the mean in placebo group,[3]; Day 28,84%
same,Arms - bone mineral content: mean (SD),"[3]; ITT, Baseline",0.317 (0.109) kg
same,Arms - fat mass: mean (SD),"[3]; ITT, Baseline",2.22 (1.65) kg
same,Legs - bone mineral content: mean (SD),"[3]; ITT, Baseline",0.791 (0.273) kg
same,Legs - fat mass: mean (SD),"[3]; ITT, Baseline",5.26 (2.86) kg
same,Total body - bone mineral content (%): mean (SD),"[3]; ITT, Baseline",3.63 (0.68) %
same,Total body - bone mineral content (kg): mean (SD),"[3]; ITT, Baseline",2.236 (0.656) kg
same,Total body - fat free mass (%): mean (SD),"[3]; ITT, Baseline",72.11 (14.25) %
same,Total body - fat free mass (kg): mean (SD),"[3]; ITT, Baseline",43.83 (10.90) kg
same,Total body - fat mass (%): mean (SD),"[3]; ITT, Baseline",27.89 (14.25) %
same,Total body - fat mass (kg): mean (SD),"[3]; ITT, Baseline",17.10 (9.48) kg
same,Trunk - bone mineral content: mean (SD),"[3]; ITT, Baseline",0.699 (0.239) kg
same,Trunk - fat mass: mean (SD),"[3]; ITT, Baseline",8.52 (4.73) kg
same,Trunk - bone mineral content: mean (SD),"[3]; ITT, Baseline, listed as GHRH(1-29)NH2 synthetic analog",0.699 kg
same,Arms - bone mineral content: mean (SD),"[3]; ITT, Day 28",0.300 (0.106) kg
same,Arms - fat mass: mean (SD),"[3]; ITT, Day 28",2.01 (1.25) kg
same,Legs - bone mineral content: mean (SD),"[3]; ITT, Day 28",0.784 (0.281) kg
same,Legs - fat mass: mean (SD),"[3]; ITT, Day 28",5.31 (3.05) kg
same,Total body - bone mineral content (%): mean (SD),"[3]; ITT, Day 28",3.58 (0.69) %
same,Total body - bone mineral content (kg): mean (SD),"[3]; ITT, Day 28",2.225 (0.674) kg
same,Total body - fat free mass (%): mean (SD),"[3]; ITT, Day 28",73.16 (14.31) %
same,Total body - fat free mass (kg): mean (SD),"[3]; ITT, Day 28",44.85 (11.61) kg
same,Total body - fat mass (%): mean (SD),"[3]; ITT, Day 28",26.84 (14.31) %
same,Total body - fat mass (kg): mean (SD),"[3]; ITT, Day 28",16.51 (9.51) kg
same,Trunk - bone mineral content: mean (SD),"[3]; ITT, Day 28",0.718 (0.253) kg
same,Trunk - fat mass: mean (SD),"[3]; ITT, Day 28",8.17 (4.91) kg
same,Trunk - bone mineral content: mean (SD),"[3]; ITT, Day 28, listed as GHRH(1-29)NH2 synthetic analog",0.718 kg
same,Total body - fat free mass (kg): ratio of means; higher than placebo,"[3]; ITT, Day 28, vs placebo",2.94 kg
same,Total body - fat mass (%): ratio of means,"[3]; ITT, Day 28, vs placebo",0.83
same,Total body - fat mass (kg): ratio of means,"[3]; ITT, Day 28, vs placebo",0.84
same,Total body - fat free mass (kg): ratio of means; higher than placebo,"[3]; ITT, Day 28, vs placebo, listed as GHRH(1-29)NH2 synthetic analog",2.9 kg
same,Decrease from baseline in median FM,[3]; day 28,0.4 kg
same,FM lost on average in arms,[3]; day 28,0.22 kg
same,FM lost on average in trunk,[3]; day 28,0.30 kg
same,Increase from baseline in median FFM,[3]; day 28,1.6 kg
same,"Mean FFM gained, arms",[3]; day 28,0.15 kg
same,"Mean FFM gained, legs",[3]; day 28,1.03 kg
same,"Mean FFM gained, total body",[3]; day 28,1.83 kg
same,"Mean FFM gained, trunk",[3]; day 28,0.59 kg
same,Mean total FM lost,[3]; day 28,0.51 kg
same,Number of AEs reported,[4],70
